The molecules below were run against T1, chimeric human H3 receptor (Homo sapiens, UniProt Q9Y5N1, E19D) (assay: Chimeric human H3 receptor screening GTP binding assay (inhibition of histamine-stimulated GTP-gamma35S binding, Example 8)). Settings: 1 h; "+" in Ki of Table II; assay of Example 8; read-out: percent inhibition of agonist-induced GTP-gammaS binding to H3.
T1 construct: made in house; host or cells: Sf9 insect cells (baculovirus infection); P2 membrane preparation
Assay type: biochemical
How it was run: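 Data are percent inhibition of the 1 μM histamine-stimulated GTP-gamma35S (125 pM) binding, after non-specific binding (10 uM GTP-gammaS) is subtracted. Test compound at 4 μM. Incubation was 60 min at room temperature with Sf9 membranes bearing receptor plus G-protein subunits, buffer pH 7.4 with 10 μM GDP, and filtration read-out.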

T1 sequence (Q9Y5N1 with tags, fused parts or gaps E19D): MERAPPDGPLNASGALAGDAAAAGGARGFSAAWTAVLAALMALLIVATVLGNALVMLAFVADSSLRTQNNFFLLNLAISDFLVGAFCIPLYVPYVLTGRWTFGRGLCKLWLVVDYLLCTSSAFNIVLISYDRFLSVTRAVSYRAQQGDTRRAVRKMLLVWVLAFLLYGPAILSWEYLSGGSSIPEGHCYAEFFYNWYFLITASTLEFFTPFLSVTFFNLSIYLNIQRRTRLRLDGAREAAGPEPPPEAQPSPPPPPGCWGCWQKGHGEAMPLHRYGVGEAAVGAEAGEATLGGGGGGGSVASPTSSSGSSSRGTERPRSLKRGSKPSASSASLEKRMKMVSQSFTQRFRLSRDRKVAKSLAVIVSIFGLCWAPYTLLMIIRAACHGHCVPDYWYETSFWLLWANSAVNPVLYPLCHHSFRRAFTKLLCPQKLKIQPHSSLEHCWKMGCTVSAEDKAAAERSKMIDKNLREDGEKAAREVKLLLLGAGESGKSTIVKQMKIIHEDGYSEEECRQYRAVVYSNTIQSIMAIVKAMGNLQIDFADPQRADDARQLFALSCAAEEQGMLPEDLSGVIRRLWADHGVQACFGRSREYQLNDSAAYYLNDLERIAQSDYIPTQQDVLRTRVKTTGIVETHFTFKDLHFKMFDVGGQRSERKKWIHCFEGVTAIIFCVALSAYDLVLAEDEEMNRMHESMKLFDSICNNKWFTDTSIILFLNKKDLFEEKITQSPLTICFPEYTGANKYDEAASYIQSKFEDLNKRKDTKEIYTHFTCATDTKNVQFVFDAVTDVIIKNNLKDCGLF

inhibition at 4 µM [%] | SMILES
> 90 | O=C(CN1CCN(C(=O)c2cccnc2Oc2ccc(Cl)cc2)CC1)N1CCN(C2CCC2)CC1 [Compound 473, 1-{[2-(4-chlorophenoxy)pyridin-3-yl]carbonyl}-4-[2-(4-cyclobutylpiperazin-1-yl)-2-oxoethyl]piperazine]
> 90 | O=C(CN1CCN(C(=O)c2cc(C(F)(F)F)cc(C(F)(F)F)c2)CC1)N1CCN(C2CCC2)CC1 [Compound 456, 1-[3,5-bis(trifluoromethyl)benzoyl]-4-[2-(4-cyclobutylpiperazin-1-yl)-2-oxoethyl]piperazine]
> 90 | CC(CC(=O)N1CCN(CC(=O)N2CCN(C3CCC3)CC2)CC1)Sc1ccc(Cl)cc1 (stereo not drawn) [Compound 482, 1-{3-[(4-chlorophenyl)thio]butanoyl}-4-[2-(4-cyclobutylpiperazin-1-yl)-2-oxoethyl]piperazine]
> 90 | COc1ccc(OC)c(/C=C/C(=O)N2CCN(CC(=O)N3CCN(C4CCC4)CC3)CC2)c1 [Compound 521, 1-cyclobutyl-4-({4-[(2E)-3-(2,5-dimethoxyphenyl)prop-2-enoyl]piperazin-1-yl}acetyl)piperazine]
> 90 | CCn1nc(C)cc1C(=O)N1CCN(CC(=O)N2CCN(C3CCC3)CC2)CC1 [Compound 499, 1-cyclobutyl-4-({4-[(1-ethyl-3-methyl-1H-pyrazol-5-yl)carbonyl]piperazin-1-yl}acetyl)piperazine]
> 90 | O=C(CN1CCN(C(=O)c2csc(-c3ccncc3)n2)CC1)N1CCN(C2CCC2)CC1 [Compound 543, 1-cyclobutyl-4-({4-[(2-pyridin-4-yl-1,3-thiazol-4-yl)carbonyl]piperazin-1-yl}acetyl)piperazine]
> 90 | O=C(/C=C/c1ccc(F)cc1)N1CCN(CC(=O)N2CCN(C3CCC3)CC2)CC1 [Compound 529, 1-cyclobutyl-4-({4-[(2E)-3-(4-fluorophenyl)prop-2-enoyl]piperazin-1-yl}acetyl)piperazine]

SMILES | inhibition at 4 µM [%]
Cc1cccc(CC(=O)N2CCN(CC(=O)N3CCN(C4CCC4)CC3)CC2)c1 [Compound 555, 1-cyclobutyl-4-({4-[(3-methylphenyl)acetyl]piperazin-1-yl}acetyl)piperazine] | > 90
COc1cc(CC(=O)N2CCN(CC(=O)N3CCN(C4CCC4)CC3)CC2)cc(OC)c1OC [Compound 544, 1-cyclobutyl-4-({4-[(3,4,5-trimethoxyphenyl)acetyl]piperazin-1-yl}acetyl)piperazine] | > 90
O=C(COc1ccc(Cl)cc1Cl)N1CCN(CC(=O)N2CCN(C3CCC3)CC2)CC1 [Compound 504, 1-cyclobutyl-4-({4-[(2,4-dichlorophenoxy)acetyl]piperazin-1-yl}acetyl)piperazine] | > 90

Same assay, conditions: 1 h; Table II "Ki", symbol "+": assay described in Example 8; read-out: percent inhibition of agonist-induced GTP-gammaS binding to H3

inhibition at 4 µM [%] | SMILES
> 90 | Cc1ccc(C(=O)N2CCN(CC(=O)N3CCN(C4CCC4)CC3)CC2)cc1 [Compound 783, 1-cyclobutyl-4-{[4-(4-methylbenzoyl)piperazin-1-yl]acetyl}piperazine]
> 90 | O=C(CN1CCN(C(=O)c2cccnc2)CC1)N1CCN(C2CCC2)CC1 [Compound 800, 1-cyclobutyl-4-{[4-(pyridin-3-ylcarbonyl)piperazin-1-yl]acetyl}piperazine]

SMILES | inhibition at 4 µM [%]
O=C(COc1ccccc1)N1CCN(CC(=O)N2CCN(C3CCC3)CC2)CC1 [Compound 797, 1-cyclobutyl-4-{[4-(phenoxyacetyl)piperazin-1-yl]acetyl}piperazine] | > 90

Same assay, conditions: 1 h; Table II, "+" in the column headed Ki; assay of Example 8; read-out: percent inhibition of agonist-induced GTP-gammaS binding to H3

inhibition at 4 µM [%] | SMILES
> 90 | O=C(/C=C/c1ccc(C(F)(F)F)cc1)N1CCN(CC(=O)N2CCN(C3CCC3)CC2)CC1 [Compound 616, 1-cyclobutyl-4-[(4-{(2E)-3-[4-(trifluoromethyl)phenyl]prop-2-enoyl}piperazin-1-yl)acetyl]piperazine]
> 90 | O=C(CN1CCN(C(=O)c2cc(Cl)cc(Cl)c2)CC1)N1CCN(C2CCC2)CC1 [Compound 738, 1-cyclobutyl-4-{[4-(3,5-dichlorobenzoyl)piperazin-1-yl]acetyl}piperazine]
> 90 | CCOc1ccccc1C(=O)N1CCN(CC(=O)N2CCN(C3CCC3)CC2)CC1 [Compound 699, 1-cyclobutyl-4-{[4-(2-ethoxybenzoyl)piperazin-1-yl]acetyl}piperazine]
> 90 | O=C(CN1CCN(C(=O)c2cc(Cl)ccc2Cl)CC1)N1CCN(C2CCC2)CC1 [Compound 681, 1-cyclobutyl-4-{[4-(2,5-dichlorobenzoyl)piperazin-1-yl]acetyl}piperazine]
> 90 | O=C(CN1CCN(C(=O)C(c2ccccc2)C2CCCCC2)CC1)N1CCN(C2CCC2)CC1 (stereo not drawn) [Compound 612, 1-cyclobutyl-4-({4-[cyclohehexyl(phenyl)acetyl]piperazin-1-yl}acetyl)piperazine]
> 90 | Cc1cccc(C)c1C(=O)N1CCN(CC(=O)N2CCN(C3CCC3)CC2)CC1 [Compound 696, 1-cyclobutyl-4-{[4-(2,6-dimethylbenzoyl)piperazin-1-yl]acetyl}piperazine]
> 90 | O=C(CN1CCN(C(=O)c2cccs2)CC1)N1CCN(C2CCC2)CC1 [Compound 723, 1-cyclobutyl-4-{[4-(2-thienylcarbonyl)piperazin-1-yl]acetyl}piperazine]
> 90 | O=C(CN1CCN(C(=O)c2cnccc2C(F)(F)F)CC1)N1CCN(C2CCC2)CC1 [Compound 632, 1-cyclobutyl-4-[(4-{[4-(trifluoromethyl)pyridin-3-yl]carbonyl}piperazin-1-yl)acetyl]piperazine]
> 90 | CCSc1ncccc1C(=O)N1CCN(CC(=O)N2CCN(C3CCC3)CC2)CC1 [Compound 618, 1-cyclobutyl-4-[(4-{[2-(ethylthio)pyridin-3-yl]carbonyl}piperazin-1-yl)acetyl]piperazine]
> 90 | O=C(CN1CCN(C(=O)c2ccc(F)cc2)CC1)N1CCN(C2CCC2)CC1 [Compound 772, 1-cyclobutyl-4-{[4-(4-fluorobenzoyl)piperazin-1-yl]acetyl}piperazine]
> 90 | Cc1ccc(Oc2ncccc2C(=O)N2CCN(CC(=O)N3CCN(C4CCC4)CC3)CC2)c(C)c1 [Compound 617, 1-cyclobutyl-4-[(4-{[2-(2,4-dimethylphenoxy)pyridin-3-yl]carbonyl}piperazin-1-yl)acetyl]piperazine]
> 90 | Cc1cccc(C(=O)N2CCN(CC(=O)N3CCN(C4CCC4)CC3)CC2)c1C [Compound 671, 1-cyclobutyl-4-{[4-(2,3-dimethylbenzoyl)piperazin-1-yl]acetyl}piperazine]

SMILES | inhibition at 4 µM [%]
O=C(Cc1ccc2ccccc2c1)N1CCN(CC(=O)N2CCN(C3CCC3)CC2)CC1 [Compound 717, 1-cyclobutyl-4-{[4-(2-naphthylacetyl)piperazin-1-yl]acetyl}piperazine] | > 90
O=C(COc1ccc(OC(F)(F)F)cc1)N1CCN(CC(=O)N2CCN(C3CCC3)CC2)CC1 [Compound 629, 1-cyclobutyl-4-[(4-{[4-(trifluoromethoxy)phenoxy]acetyl}piperazin-1-yl)acetyl]piperazine] | > 90

Same assay, conditions: 1 h; assay described in Example 8; symbol + in column headed Ki of Table II; read-out: percent inhibition of agonist-induced GTP-gammaS binding to H3

inhibition at 4 µM [%] | SMILES
> 90 | O=C(CN1CCN(C(=O)c2ccc(F)c(Br)c2)CC1)N1CCN(C2CCC2)CC1 [Compound 291, 1-(3-bromo-4-fluorobenzoyl)-4-[2-(4-cyclobutylpiperazin-1-yl)-2-oxoethyl]piperazine]
> 90 | O=C(CN1CCN(C(=O)c2ccccc2-c2ccccc2)CC1)N1CCN(C2CCC2)CC1 [Compound 374, 1-(biphenyl-2-ylcarbonyl)-4-[2-(4-cyclobutylpiperazin-1-yl)-2-oxoethyl]piperazine]
> 90 | O=C(CN1CCN(C(=O)c2ccc(-c3ccccc3)cc2)CC1)N1CCN(C2CCC2)CC1 [Compound 376, 1-(biphenyl-4-ylcarbonyl)-4-[2-(4-cyclobutylpiperazin-1-yl)-2-oxoethyl]piperazine]
> 90 | CCCCc1ccc(C(=O)N2CCN(CC(=O)N3CCN(C4CCC4)CC3)CC2)nc1 [Compound 412, 1-[(5-butylpyridin-2-yl)carbonyl]-4-[2-(4-cyclobutylpiperazin-1-yl)-2-oxoethyl]piperazine]

SMILES | inhibition at 4 µM [%]
O=C(Cc1cccc(Br)c1)N1CCN(CC(=O)N2CCN(C3CCC3)CC2)CC1 [Compound 396, 1-[(3-bromophenyl)acetyl]-4-[2-(4-cyclobutylpiperazin-1-yl)-2-oxoethyl]piperazine] | > 90
O=C(Cc1ccc(F)cc1Cl)N1CCN(CC(=O)N2CCN(C3CCC3)CC2)CC1 [Compound 381, 1-[(2-chloro-4-fluorophenyl)acetyl]-4-[2-(4-cyclobutylpiperazin-1-yl)-2-oxoethyl]piperazine] | > 90
O=C(COc1ccccc1Cl)N1CCN(CC(=O)N2CCN(C3CCC3)CC2)CC1 [Compound 383, 1-[(2-chlorophenoxy)acetyl]-4-[2-(4-cyclobutylpiperazin-1-yl)-2-oxoethyl]piperazine] | > 90

Same assay, conditions: 1 h; assay of Example 8; "+" in Ki of Table II; read-out: percent inhibition of agonist-induced GTP-gammaS binding to H3

inhibition at 4 µM [%] | SMILES
> 90 | Cc1ccc(C(=O)N2CCN(CC(=O)N3CCN(C4CCC4)CC3)CC2)cc1N [Compound 1153, 5-({4-[2-(4-cyclobutylpiperazin-1-yl)-2-oxoethyl]piperazin-1-yl}carbonyl)-2-methylaniline]
> 90 | Nc1ccc(Cl)cc1C(=O)N1CCN(CC(=O)N2CCN(C3CCC3)CC2)CC1 [Compound 1151, 4-chloro-2-({4-[2-(4-cyclobutylpiperazin-1-yl)-2-oxoethyl]piperazin-1-yl}carbonyl)aniline]

Reference: patent publication US7851474B2, “Dipiperazinyl ketones and related analogues” (Neurogen Corporation, priority 2005, dated 2010)
